Test results from ChEMBL document CHEMBL1287678, “5-{2-[4-(2-methyl-5-quinolinyl)-1-piperazinyl]ethyl}-2(1H)-quinolinones and 3,4-dihydro-2(1H)-quinolinones: dual-acting 5-HT1 receptor antagonists and serotonin reuptake inhibitors. Part 3” (Bioorg Med Chem Lett, 2010).

Tests used:
[1] = tested on: Liver microsomes; test: Intrinsic clearance in human liver microsomes; type: ADME, Microsome
[2] = molecular target: T1, 5-hydroxytryptamine receptor 1A (Homo sapiens, UniProt P08908); test: Antagonist activity at human 5-HT1A receptor expressed in HEK293 cells assessed as inhibition of GTPgammaS binding by scintillation proximity assay; type: functional, cell-based
T1 sequence (P08908 whole entry): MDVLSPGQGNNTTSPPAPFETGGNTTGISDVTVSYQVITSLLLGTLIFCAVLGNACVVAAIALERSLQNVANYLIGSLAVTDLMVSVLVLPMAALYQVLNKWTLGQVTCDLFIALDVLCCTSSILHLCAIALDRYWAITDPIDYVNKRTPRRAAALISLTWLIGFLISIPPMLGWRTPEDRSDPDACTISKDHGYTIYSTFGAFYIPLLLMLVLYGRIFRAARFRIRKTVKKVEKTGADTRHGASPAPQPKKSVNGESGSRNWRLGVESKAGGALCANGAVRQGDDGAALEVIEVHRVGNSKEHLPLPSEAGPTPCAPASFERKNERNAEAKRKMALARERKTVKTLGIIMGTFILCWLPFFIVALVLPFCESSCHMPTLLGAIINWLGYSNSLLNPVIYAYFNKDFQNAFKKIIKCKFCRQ

[3] = molecular target: T2, 5-hydroxytryptamine receptor 1B (Homo sapiens, UniProt P28222); test: Antagonist activity at human 5-HT1B receptor expressed in CHO cells assessed as inhibition of GTPgammaS binding by scintillation proximity assay; type: functional, cell-based
[4] = molecular target: T3, 5-hydroxytryptamine receptor 1D (Homo sapiens, UniProt P28221); test: Antagonist activity at human 5-HT1D receptor expressed in CHO cells assessed as inhibition of GTPgammaS binding by scintillation proximity assay; type: functional, cell-based
[5] = molecular target: Sodium-dependent serotonin transporter (Homo sapiens, UniProt P31645); test: Displacement of [3H]-citalopram in human SERT expressed in LLCPK cells by filtration assay; type: cell-based
[6] = molecular target: Voltage-gated inwardly rectifying potassium channel KCNH2 (Homo sapiens, UniProt Q12809); test: Displacement of [3H]-dofetilide in human hERG expressed in CHO cells by proximity assay; type: cell-based
[7] = Blood clearance in rat at 0.5 mg/kg, iv and 1 mg/kg, po; type: ADME, organism-based; settings: whole blood
[8] = Volume of distribution at steady state in rat at 0.5 mg/kg, iv and 1 mg/kg, po; type: ADME, organism-based; settings: in vivo, read-out: Vdss
[9] = Half life in rat at 0.5 mg/kg, iv and 1 mg/kg, po; type: ADME, organism-based; settings: in vivo
[10] = Oral bioavailability in rat at 1 mg/kg; type: ADME, organism-based; settings: in vivo
[11] = Ratio of drug level in brain to blood in rat at 0.5 mg/kg, iv and 1 mg/kg, po; type: ADME, organism-based; settings: brain / whole blood
[12] = molecular target: T4, 5-hydroxytryptamine receptor 1A (Homo sapiens) (UniProt P08908); test: Intrinsic activity at human 5-HT1A receptor expressed in HEK293 cells assessed as effect on GTPgammaS binding by scintillation proximity assay relative to 5HT; type: functional, cell-based
T4 sequence (whole entry): T1 sequence (P08908 whole entry)

[13] = molecular target: T3, 5-hydroxytryptamine receptor 1D; test: Intrinsic activity at human 5-HT1D receptor expressed in CHO cells assessed as effect on GTPgammaS binding by scintillation proximity assay relative to 5HT; type: functional, cell-based
[14] = molecular target: T1, 5-hydroxytryptamine receptor 1A; test: Agonist activity at human 5-HT1A receptor expressed in HEK293 cells assessed as stimulation of GTPgammaS binding by scintillation proximity assay; type: functional, cell-based
[15] = molecular target: T3, 5-hydroxytryptamine receptor 1D; test: Agonist activity at human 5-HT1D receptor expressed in CHO cells assessed as stimulation of GTPgammaS binding by scintillation proximity assay; type: functional, cell-based
[16] = molecular target: T2, 5-hydroxytryptamine receptor 1B; test: Intrinsic activity at human 5-HT1B receptor expressed in CHO cells assessed as effect on GTPgammaS binding by scintillation proximity assay relative to 5HT; type: functional, cell-based
[17] = molecular target: T2, 5-hydroxytryptamine receptor 1B; test: Agonist activity at human 5-HT1B receptor expressed in CHO cells assessed as stimulation of GTPgammaS binding by scintillation proximity assay; type: functional, cell-based

T3 sequence (P28221 whole entry): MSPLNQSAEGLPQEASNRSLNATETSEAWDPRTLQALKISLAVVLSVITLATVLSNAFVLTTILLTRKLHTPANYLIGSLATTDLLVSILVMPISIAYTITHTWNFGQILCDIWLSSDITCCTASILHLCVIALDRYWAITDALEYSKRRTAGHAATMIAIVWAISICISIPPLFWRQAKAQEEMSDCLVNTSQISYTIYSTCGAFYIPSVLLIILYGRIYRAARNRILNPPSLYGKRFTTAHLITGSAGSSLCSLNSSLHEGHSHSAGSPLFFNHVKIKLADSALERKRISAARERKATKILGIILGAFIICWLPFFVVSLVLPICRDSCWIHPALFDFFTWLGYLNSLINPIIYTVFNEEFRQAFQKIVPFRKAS
Sodium-dependent serotonin transporter, sequence (P31645 whole entry): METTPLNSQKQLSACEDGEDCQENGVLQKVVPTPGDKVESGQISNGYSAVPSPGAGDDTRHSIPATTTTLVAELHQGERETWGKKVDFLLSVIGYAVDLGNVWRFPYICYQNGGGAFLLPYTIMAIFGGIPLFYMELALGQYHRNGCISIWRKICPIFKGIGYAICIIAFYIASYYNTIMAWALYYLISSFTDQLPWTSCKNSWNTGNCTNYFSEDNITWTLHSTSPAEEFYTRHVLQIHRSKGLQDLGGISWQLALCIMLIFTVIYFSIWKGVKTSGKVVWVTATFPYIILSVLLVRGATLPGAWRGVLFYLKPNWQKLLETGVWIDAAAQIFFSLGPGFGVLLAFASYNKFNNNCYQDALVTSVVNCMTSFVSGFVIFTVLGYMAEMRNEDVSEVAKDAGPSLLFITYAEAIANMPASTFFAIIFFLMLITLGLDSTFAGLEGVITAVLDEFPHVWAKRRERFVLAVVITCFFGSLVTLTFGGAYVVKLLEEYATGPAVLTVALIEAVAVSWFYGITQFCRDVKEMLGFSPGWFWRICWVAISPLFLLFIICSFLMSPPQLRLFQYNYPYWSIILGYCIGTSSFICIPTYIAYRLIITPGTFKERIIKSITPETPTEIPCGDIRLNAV
T2 sequence (P28222 whole entry): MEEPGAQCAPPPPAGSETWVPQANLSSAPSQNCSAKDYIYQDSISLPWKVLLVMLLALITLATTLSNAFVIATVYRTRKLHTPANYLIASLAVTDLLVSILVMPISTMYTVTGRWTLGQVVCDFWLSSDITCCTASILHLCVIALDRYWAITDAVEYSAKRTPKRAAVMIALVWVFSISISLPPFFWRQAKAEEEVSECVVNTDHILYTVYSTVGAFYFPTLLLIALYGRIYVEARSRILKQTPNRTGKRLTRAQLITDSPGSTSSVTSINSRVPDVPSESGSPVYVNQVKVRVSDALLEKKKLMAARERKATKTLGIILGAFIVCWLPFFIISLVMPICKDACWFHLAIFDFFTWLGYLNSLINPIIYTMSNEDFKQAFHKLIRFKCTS
Voltage-gated inwardly rectifying potassium channel KCNH2, sequence (Q12809 whole entry): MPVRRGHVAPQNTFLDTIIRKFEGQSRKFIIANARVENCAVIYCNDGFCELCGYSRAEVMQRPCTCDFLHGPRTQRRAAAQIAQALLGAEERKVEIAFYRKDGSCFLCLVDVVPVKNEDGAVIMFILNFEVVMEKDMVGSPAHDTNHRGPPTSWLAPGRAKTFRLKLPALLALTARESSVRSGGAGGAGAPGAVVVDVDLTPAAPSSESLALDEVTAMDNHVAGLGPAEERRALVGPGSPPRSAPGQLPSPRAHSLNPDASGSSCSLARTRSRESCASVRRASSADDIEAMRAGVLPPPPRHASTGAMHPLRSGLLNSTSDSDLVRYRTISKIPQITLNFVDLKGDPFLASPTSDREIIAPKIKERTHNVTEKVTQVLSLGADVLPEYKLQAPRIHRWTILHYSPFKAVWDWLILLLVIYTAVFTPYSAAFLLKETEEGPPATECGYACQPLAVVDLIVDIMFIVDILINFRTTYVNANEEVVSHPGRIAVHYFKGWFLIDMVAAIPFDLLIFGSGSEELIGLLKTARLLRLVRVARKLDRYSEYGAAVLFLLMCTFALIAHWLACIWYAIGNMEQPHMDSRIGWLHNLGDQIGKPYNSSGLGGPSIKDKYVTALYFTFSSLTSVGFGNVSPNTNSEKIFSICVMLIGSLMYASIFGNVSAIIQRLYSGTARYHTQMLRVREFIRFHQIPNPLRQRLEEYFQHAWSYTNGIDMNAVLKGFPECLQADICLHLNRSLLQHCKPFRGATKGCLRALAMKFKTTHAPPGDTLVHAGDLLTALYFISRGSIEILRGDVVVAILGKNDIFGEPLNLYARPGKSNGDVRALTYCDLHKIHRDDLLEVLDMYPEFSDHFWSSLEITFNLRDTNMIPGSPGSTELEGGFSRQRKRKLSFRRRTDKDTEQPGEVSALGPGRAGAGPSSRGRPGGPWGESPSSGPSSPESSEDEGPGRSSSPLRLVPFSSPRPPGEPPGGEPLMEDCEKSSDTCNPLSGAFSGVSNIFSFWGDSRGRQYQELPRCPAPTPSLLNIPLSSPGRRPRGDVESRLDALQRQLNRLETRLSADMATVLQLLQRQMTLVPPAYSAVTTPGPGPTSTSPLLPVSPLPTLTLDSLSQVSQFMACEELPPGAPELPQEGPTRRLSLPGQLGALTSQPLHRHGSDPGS

Row | Compound | CL [1] | Ki [2] | Ki [3] | Ki [4] | Ki [5] | Ki [6] | clearance [7] | Vd [8] | half-life [9] | bioavailability [10] | Kp [11] | Intrinsic activity [12] | Intrinsic activity [13] | EC50 [14] | EC50 [15] | Intrinsic activity [16] | EC50 [17]
1 | Cc1ccc2c(N3CCN(CCc4cccc5c4OCC(=O)N5C)CC3)cccc2n1 | 2.4 mL/min/g |  |  |  |  |  |  |  |  |  |  |  |  |  |  |  | 
2 | Cc1ccc2c(C3CCN(CCc4c(C)ccc5c4ccc(=O)n5C)CC3)cccc2n1 | 0.9 mL/min/g | 1.26 nM | > 1000 nM | 39.8 nM | 1.26 nM | 2000 nM | 31 mL/min/kg | 3.4 L/kg | 1.4 h | 82% | 0.8 | 0 | 0 |  |  |  | 
3 | Cc1ccc2c(N3CCN(CCc4cccc5c4ccc(=O)n5C)CC3)cccc2n1 | 1.2 mL/min/g |  | 0.794 nM |  | 2.51 nM | 10000 nM | 32 mL/min/kg | 2.1 L/kg | 1.3 h | 37% | 1.1 | 0.4 | 0.7 | 0.0316 nM | 1 nM | 0 | 
4 | Cc1ccc2c(N3CCN(CCc4cccc5[nH]c(=O)ccc45)CC3)cccc2n1 |  |  |  |  |  |  |  |  |  |  |  | 0 | 0 |  |  | 0 | 
5 | Cc1ccc2c(N3CCN(CCc4c(C)ccc5[nH]c(=O)ccc45)CC3)cccc2n1 |  | 1 nM |  |  | 100 nM |  |  |  |  |  |  | 0 | 0 |  |  | 0.4 | 501 nM
6 | Cc1ccc2c(N3CCN(CCc4c(C)ccc5c4CCC(=O)N5C)CC3)cccc2n1 | 1.3 mL/min/g | 0.631 nM |  | 1 nM | 25.1 nM | 794 nM | 9 mL/min/kg | 2 L/kg | 3 h | 83% | 0.4 | 0 | 0 |  |  | 0.4 | 398 nM
7 | Cc1ccc2c(N3CCN(CCc4cccc5c4OCC(=O)N5)CC3)cccc2n1 | 1 mL/min/g |  |  |  |  |  |  |  |  |  |  |  |  |  |  |  | 
8 | Cc1ccc2c(N3CCN(CCc4c(C)ccc5c4ccc(=O)n5C)[C@H](C)C3)cccc2n1 | 1.2 mL/min/g | 1.26 nM | > 1000 nM | 2.51 nM | 3.98 nM | 7940 nM | 21 mL/min/kg | 2.1 L/kg | 1.5 h | 31% | 0.4 | 0 | 0 |  |  |  | 
9 | Cc1ccc2c(N3CCN(CCc4cccc5c4ccc(=O)n5C)C(C)(C)C3)cccc2n1 | 3.8 mL/min/g | 1.58 nM | 0.501 nM | 0.501 nM |  |  | 34 mL/min/kg | 0.8 L/kg | 0.6 h | 27% | 1.1 | 0.3 | 0 |  |  |  | 
10 | Cc1ccc2c(N3CCN(CCc4cccc5c4CCC(=O)N5)CC3)cccc2n1 |  |  |  |  |  |  |  |  |  |  |  | 0 | 0 |  |  | 0 | 
11 | Cc1ccc2c(N3CCN(CCc4c(Cl)ccc5c4ccc(=O)n5C)CC3)cccc2n1 |  | 3.98 nM |  | 3.98 nM | 15.8 nM |  |  |  |  |  |  | 0 | 0 |  |  | 0.5 | 316 nM
12 | Cc1ccc2c(N3CCN(CCc4c(C)ccc5c4ccc(=O)n5C)CC3)cc(F)cc2n1 | 1.6 mL/min/g | 1.26 nM | > 1000 nM | 2 nM | 10 nM | 2510 nM | 46 mL/min/kg | 2.4 L/kg | 0.7 h | 82% |  | 0 | 0 |  |  |  | 
13 | Cc1ccc2c(N3CCN(CCc4c(F)ccc5c4ccc(=O)n5C)CC3)cccc2n1 |  | 0.398 nM | 31.6 nM | 0.398 nM | 12.6 nM | 31600 nM |  |  |  |  |  | 0 | 0 |  |  | 0 | 
14 | Cc1ccc2c(N3CCN(CCc4c(C)ccc5c4ccc(=O)n5C)[C@@H](C)C3)cc(F)cc2n1 |  | 3.98 nM | > 1000 nM | > 1000 nM | 1 nM |  |  |  |  |  |  | 0 |  |  |  |  | 
15 | Cc1ccc2c(N3CCN(CCc4cccc5c4ccc(=O)n5C)[C@@H](C)C3)cc(F)cc2n1 | 0.8 mL/min/g | 1 nM | 316 nM | 1.26 nM | 0.501 nM | 6310 nM | 34 mL/min/kg | 2 L/kg | 1.6 h | 34% | 1.2 | 0 | 0 |  |  | 0 | 
16 | Cc1ccc2c(N3CCN(CCc4cccc5c4ccc(=O)n5C)[C@H](C)C3)cc(F)cc2n1 |  | 1 nM | 0.794 nM | 0.126 nM | 0.501 nM | 10000 nM |  |  |  |  |  | 0 | 0 |  |  | 0 | 
17 | Cc1ccc2c(N3CCN(CCc4cccc5c4ccc(=O)n5C)[C@@H](C)C3)cccc2n1 | 1.5 mL/min/g | 3.16 nM | 398 nM | 5.01 nM | 2.51 nM | 5010 nM | 32 mL/min/kg | 1.2 L/kg | 0.6 h | 12% | 1.3 | 0 | 0 |  |  | 0 | 
18 | Cc1ccc2c(N3CCN(CCc4c(C)ccc5c4ccc(=O)n5C)CC3)cccc2n1 | 1.5 mL/min/g | 0.631 nM |  | 2 nM | 12.6 nM | 3980 nM | 28 mL/min/kg | 2.3 L/kg | 1.1 h | 88% | 0.5 | 0 | 0 |  |  | 0.4 | 63.1 nM
19 | Cc1ccc2c(N3CCN(CCc4cccc5c4CCC(=O)N5C)CC3)cccc2n1 |  | 0.631 nM | 0.794 nM | 0.0794 nM | 12.6 nM | 3980 nM |  |  |  |  |  | 0 | 0 |  |  | 0 | 
20 | Cc1ccc2c(N3CCN(CCc4c(C)ccc5c4ccc(=O)n5C)[C@@H](C)C3)cccc2n1 | < 0.5 mL/min/g | 3.98 nM | > 1000 nM | 20 nM | 0.501 nM | 1580 nM | 46 mL/min/kg | 2.7 L/kg | 1.2 h | 35% | 1.7 | 0 | 0 |  |  |  | 
21 | Cc1ccc2c(N3CCN(CCc4c(C)ccc5c4CCC(=O)N5)CC3)cccc2n1 | < 0.5 mL/min/g | 0.794 nM |  |  | 50.1 nM | 3980 nM | 7 mL/min/kg | 3 L/kg | 5.4 h | 73% | 0.8 | 0.3 | 0.5 |  | 5.01 nM | 0.4 | 200 nM
